Data on four compounds can be found in BindingDB's records for doi:10.1016/0014-2999(93)90722-t (Sanofi Recherche, 1993).

Where “and” joins values, the source holds several entries; their conditions need not be identical. Equal entries are not always repeated. Where a SMILES comes first, the peptide text is derived from it. [ ]: non-standard residue; d: D form. sY = N[C@@H](Cc1ccc(OS(=O)(=O)O)cc1)C(=O)O

For assay [1], the target named is T1, Gastrin/cholecystokinin type B receptor (Rattus norvegicus, UniProt P30553).
T1 sequence (P30553 whole entry): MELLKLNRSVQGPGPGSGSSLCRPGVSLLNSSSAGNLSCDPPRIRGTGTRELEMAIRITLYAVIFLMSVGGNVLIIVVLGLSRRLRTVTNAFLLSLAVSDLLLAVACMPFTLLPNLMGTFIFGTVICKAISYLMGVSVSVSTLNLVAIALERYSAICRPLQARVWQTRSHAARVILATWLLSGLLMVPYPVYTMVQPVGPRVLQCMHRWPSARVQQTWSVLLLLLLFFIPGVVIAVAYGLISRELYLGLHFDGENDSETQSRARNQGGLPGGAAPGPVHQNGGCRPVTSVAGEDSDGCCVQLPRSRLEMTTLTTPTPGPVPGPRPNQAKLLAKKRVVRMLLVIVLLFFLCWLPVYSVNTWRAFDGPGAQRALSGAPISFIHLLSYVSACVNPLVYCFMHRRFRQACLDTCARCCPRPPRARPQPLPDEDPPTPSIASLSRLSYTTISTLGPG

Regarding `CN1C(=O)[C@@H](NC(=O)c2cc3ccccc3[nH]2)N=C(c2ccccc2)c2ccccc21` [1H-Indole-2-carboxylic acid (1-methyl-2-oxo-5-phenyl-2,3-dihydro-1H-benzo[e][1,4]diazepin-3-yl)-amide: 0.1C4H10O. 0.15CH2Cl2], the Ki (as a rule, the equilibrium dissociation constant of an inhibitor or competing ligand from its target) is 275 nM and 195 nM. With `O=C(O)Cn1c(C(=O)Nc2nc(-c3ccccc3Cl)cs2)cc2ccccc21` [CAS_122077], the Ki was 489 nM and 2880 nM. In assay [1], this compound had a Ki of 0.58 nM. In the case of `CSCC[C@H](NC(=O)[C@H](CC(C)C)NC(=O)[C@H](Cc1cnc[nH]1)NC(=O)CNC(=O)[C@@H](NC(=O)[C@H](C)NC(=O)[C@H](Cc1c[nH]c2ccccc12)NC(=O)[C@H](Cc1cnc[nH]1)NC(=O)[C@H](CC(N)=O)NC(=O)CN)C(C)C)C(N)=O` [NSC_5486814], the affinity, expressed as Ki, was 24 nM.

Compound `CC[C@H](C)[C@H](NC(=O)[C@H](CCCNC(=N)N)NC(=O)[C@H](Cc1c[nH]cn1)NC(=O)[C@H](CO)NC(=O)[C@@H]1CCCN1C(=O)[C@H](CC(=O)O)NC(=O)[C@H](CC(C)C)NC(=O)[C@H](CC(N)=O)NC(=O)[C@H](CCC(N)=O)NC(=O)[C@H](CC(C)C)NC(=O)[C@H](CC(N)=O)NC(=O)[C@H](CCCCN)NC(=O)[C@@H](NC(=O)[C@@H](NC(=O)[C@H](CO)NC(=O)[C@H](CCSC)NC(=O)[C@H](CCCNC(=N)N)NC(=O)CNC(=O)[C@H](CO)NC(=O)[C@@H]1CCCN1C(=O)[C@H](C)NC(=O)[C@@H](N)CCCCN)[C@@H](C)CC)C(C)C)C(=O)N[C@@H](CO)C(=O)N[C@@H](CC(=O)O)C(=O)N[C@@H](CCCNC(=N)N)C(=O)N[C@@H](CC(=O)O)C(=O)N[C@@H](Cc1ccc(OS(=O)(=O)O)cc1)C(=O)N[C@@H](CCSC)C(=O)NCC(=O)N[C@@H](Cc1c[nH]c2ccccc12)C(=O)N[C@@H](CCSC)C(=O)N[C@@H](CC(=O)O)C(=O)N[C@@H](Cc1ccccc1)C(N)=O` [CHOLECYSTOKININ] (H-KAPSGRMSIVKNLQNLDPSHRISDRD[sY]MGWMDF-NH2) showed a Ki of 0.62 nM.
